The text below walks through data of patent US12673933B2, “Aminopyrazine compounds as HPK1 inhibitor and the use thereof” (BEIGENE, LTD., priority 2019, dated 2026).

Broadly, the IC50 is the midpoint of a concentration-inhibition curve.

The target of this assay is T1, HPK1 kinase (aa1-346, Life Technologies) (Homo sapiens, UniProt Q92918).
T1 construct: HPK1 kinase (aa1-346, Life Technologies); purchased Life Technologies
T1 sequence (Q92918 1-346): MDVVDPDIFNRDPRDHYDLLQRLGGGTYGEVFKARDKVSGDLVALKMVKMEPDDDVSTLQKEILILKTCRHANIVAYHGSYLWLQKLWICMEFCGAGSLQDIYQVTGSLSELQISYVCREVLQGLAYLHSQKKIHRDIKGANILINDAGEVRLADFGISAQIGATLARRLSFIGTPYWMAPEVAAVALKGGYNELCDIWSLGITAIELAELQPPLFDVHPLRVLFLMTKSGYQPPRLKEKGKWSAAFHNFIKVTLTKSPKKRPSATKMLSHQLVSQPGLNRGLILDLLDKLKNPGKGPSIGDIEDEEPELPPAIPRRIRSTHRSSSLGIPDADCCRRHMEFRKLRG
The assay is described as follows: HPK Kinase Activity Assay at 1 mM ATP (TR-FRET). Format: biochemical. The conditions noted are these: HPK1 kinase 40 nM, 0.5 μM STK1 substrate, read-out: Enzymatic activity IC50. In a few lines: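 HPK1 (aa1-346, 40 nM) was preincubated 60 min at room temperature with compound (0–10 μM) in pH 7.0 HEPES/MgCl2 buffer. Reaction ran 120 min at room temperature with 1 mM ATP and 0.5 μM STK1 substrate. Phosphorylation was read as the TR-FRET 665/620 nm ratio, with IC50 from a four-parameter logistic fit.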
On the technique in general: TR-FRET usually uses a lanthanide donor and a delayed reading to cut background.
For `Cc1cc(-c2cnc(N)c(Oc3cnn([C@H]4CC[C@@](C)(O)CC4)c3)n2)cc2c1CCN(C)C2` [Example 311, (1s,4s)-4-(4-(3-amino-6-(2,5-dimethyl-1,2,3,4-tetrahydroisoquinolin-7-yl)pyrazin-2-yloxy)-1H-pyrazol-1-yl)-1-methylcyclohexanol], the IC50 turned out to be 0.0077 µM.

As to `Cc1cc(-c2cnc(N)c(Oc3cnn([C@H]4CC[C@@](C)(O)CC4)c3)n2)cc2c1CN(C)CC2` [Example 312, (1s,4s)-4-(4-(3-amino-6-(2,8-dimethyl-1,2,3,4-tetrahydroisoquinolin-6-yl)pyrazin-2-yloxy)-1H-pyrazol-1-yl)-1-methylcyclohexanol], the IC50 came to 0.063 µM.

For `Cc1cc(-c2cnc(N)c(Oc3cnn(C(C)(C)CC#N)c3)n2)cc2c1CCN(C)C2` [Example 313, 3-(4-(3-amino-6-(2,5-dimethyl-1,2,3,4-tetrahydroisoquinolin-7-yl)pyrazin-2-yloxy)-1H-pyrazol-1-yl)-3-methylbutanenitrile], the IC50 came out at 0.0083 µM.

With `Cc1cc(-c2cnc(N)c(Oc3cnn(CC4(F)CCOCC4)c3)n2)cc2c1CCN(C)C2` [Example 314, 5-(2,5-dimethyl-1,2,3,4-tetrahydroisoquinolin-7-yl)-3-(1-((4-fluoro-tetrahydro-2H-pyran-4-yl)methyl)-1H-pyrazol-4-yloxy)pyrazin-2-amine], the IC50 turned out to be 0.0045 µM.

Consider `Cc1cc(-c2cnc(N)c(Oc3cnn([C@H]4C[C@H](C#N)C4)c3)n2)cc2c1CCN(C)C2` [Example 315, (1r,3r)-3-(4-((3-amino-6-(2,5-dimethyl-1,2,3,4-tetrahydroisoquinolin-7-yl)pyrazin-2-yl)oxy)-1H-pyrazol-1-yl)cyclobutane-1-carbonitrile], for which the IC50 amounted to 0.033 µM.

In the case of `Cc1cc(-c2cnc(N)c(Oc3cnn([C@H]4C[C@H](C#N)C4)c3)n2)cc2c1CN(C)CC2` [Example 316, (1r,3r)-3-(4-((3-amino-6-(2,8-dimethyl-1,2,3,4-tetrahydroisoquinolin-6-yl)pyrazin-2-yl)oxy)-1H-pyrazol-1-yl)cyclobutane-1-carbonitrile], the IC50 worked out at 0.085 µM.

`Cc1cc(-c2cnc(N)c(Oc3cnn(C(C)(C)C#N)c3)n2)cc2c1CCN(C)C2` [Example 317, 2-(4-(3-amino-6-(2,5-dimethyl-1,2,3,4-tetrahydroisoquinolin-7-yl)pyrazin-2-yloxy)-1H-pyrazol-1-yl)-2-methylpropanenitrile]: the IC50 is 0.02 µM.

As to `Cc1cc(-c2cnc(N)c(Oc3cnn(CC(C)(C)C#N)c3)n2)cc2c1CN(C)CC2` [Example 318, 3-(4-(3-amino-6-(2,8-dimethyl-1,2,3,4-tetrahydroisoquinolin-6-yl)pyrazin-2-yloxy)-1H-pyrazol-1-yl)-2,2-dimethylpropanenitrile], the IC50 worked out at 0.06 µM.

For the molecule `CC#Cc1nn(-c2nc(-c3cc(C)c4c(c3)CN(C)CC4)cnc2N)cc1C(=O)N(C)C` [Example 319, 1-(3-amino-6-(2,5-dimethyl-1,2,3,4-tetrahydroisoquinolin-7-yl)pyrazin-2-yl)-N,N-dimethyl-3-(prop-1-ynyl)-1H-pyrazole-4-carboxamide], the IC50 worked out at 0.018 µM.
